# Experiment: Thermo Scientific Hypersil GOLD aQ, 100 × 2.1 mm, 1.9 µm, 30 °C, 0.3 mL/min, estimated dead time 0.73 min; A: water + 0.01% formic acid + 4 mM ammonium formate; B: methanol + 0.01% formic acid + 4 mM ammonium formate; gradient (min/%B) 0/5 1/5 8/100 12/100
# Conditions: stereoisomer not certain
row,Compound,LC retention time
1,CCOP(=S)(OCC)Oc1cnc2ccccc2n1,10.2 min
2,COC(=O)Nc1cccc(OC(=O)Nc2cccc(C)c2)c1,9.23 min
3,COc1cc(OC)nc(NC(=O)NS(=O)(=O)c2ncccc2C(=O)N(C)C)n1,8.01 min
4,CCCSP(=S)(OCC)Oc1ccc(SC)cc1 (stereo not given),11 min
5,COc1nn(CSP(=S)(OC)OC)c(=O)s1,9.26 min
6,O=c1[nH]c2c(c(=O)n1C1CCCCC1)CCC2,9.11 min
7,CCOP(=S)(OCC)Oc1cc(C)nc(N(CC)CC)n1,10.7 min
8,CCc1ccc(C(=O)NN(C(=O)c2cc(C)cc(C)c2)C(C)(C)C)cc1,9.99 min
9,CCOP(=S)(OCC)SCn1nnc2ccccc2c1=O,9.92 min
10,CCOC(=O)N(C)C(=O)CSP(=S)(OCC)OCC,9.84 min
11,COP(=S)(OC)SCC(=O)N(C)C=O,8.06 min
12,Cc1ccc2nc3sc(=O)sc3nc2c1,9.19 min
13,CCCSP(=O)(OCC)SCCC,9.93 min
14,CCSCCSP(=S)(OC)OC,8.94 min
15,CC(C)N1C(=O)c2ccccc2NS1(=O)=O,8.26 min
16,COC(=O)c1ccccc1S(=O)(=O)NC(=O)Nc1nc(C)nc(OC)n1,8.43 min
17,CCOC(=O)Nc1cccc(OC(=O)Nc2ccccc2)c1,9.23 min
18,Cc1ccc(N=CN(C)C=Nc2ccc(C)cc2C)c(C)c1,9.09 min
19,CCNc1nc(NC(C)(C)C)nc(SC)n1,9.65 min
20,CCS(=O)(=O)CCSP(=O)(OC)OC,6.13 min

row,Compound,LC retention time
1,CNC(=O)ON=C(C)C(C)S(C)=O (stereo not given),3.06 min
2,CCC(C)Nc1c([N+](=O)[O-])cc(C(C)(C)C)cc1[N+](=O)[O-] (stereo not given),9.23 min
3,CCOP(=S)(OCC)SCSC(C)(C)C,7.2 min
4,CC(=O)OCC12CC(OC(=O)CC(C)C)C(C)=CC1OC1C(O)C(O)C2(C)C12CO2 (stereo not given),8.35 min
5,CNC(=O)C(C)SCCSP(=O)(OC)OC (stereo not given),7.11 min
6,CCOC1Oc2ccc(OS(C)(=O)=O)cc2C1(C)C (stereo not given),9.42 min
7,COc1cc2c(c3oc(=O)c4c(c13)CCC4=O)C1CCOC1O2 (stereo not given),8.26 min
8,CC(C)(C)c1ccc(CCOc2ncnc3ccccc23)cc1,11.8 min
9,COCC(=O)N(c1c(C)cccc1C)N1CCOC1=O,8.04 min
10,COP(=S)(NC(C)C)Oc1ccccc1C(=O)OC(C)C (stereo not given),8.98 min
11,CNC(=O)Oc1ccccc1OC(C)C,8.36 min
12,CCOc1ccc2c(c1)C(C)=CC(C)(C)N2,9.07 min
13,CCOC(=O)C(SP(=S)(OC)OC)c1ccccc1 (stereo not given),10.1 min
14,C#CCOS(=O)OC1CCCCC1Oc1ccc(C(C)(C)C)cc1 (stereo not given),10.9 min
15,CCOP(=S)(Oc1ccc([N+](=O)[O-])cc1)c1ccccc1 (stereo not given),9.71 min
16,CCNc1nc(NCC)nc(SC)n1,8.62 min
17,CNC(=O)ON=C(CSC)C(C)(C)C,8.21 min
18,CCCCC(C)C(OC(=O)CC(CC(=O)O)C(=O)O)C(CC(C)CCCCCCC(O)CC(O)C(C)N)OC(=O)CC(CC(=O)O)C(=O)O (stereo not given),7.46 min
19,CCOC(=O)CC(SP(=S)(OC)OC)C(=O)OCC (stereo not given),9.59 min
20,COCC(=O)N(c1c(C)cccc1C)C(C)C(=O)OC (stereo not given),9.04 min

row,Compound,LC retention time
1,CCOP(=S)(Oc1ccc(C#N)cc1)c1ccccc1 (stereo not given),8.72 min
2,COP(N)(=O)SC (stereo not given),1.58 min
3,COCCOc1ccccc1S(=O)(=O)NC(=O)Nc1nc(OC)nc(OC)n1,8.14 min
4,Cc1nn(C)c(Oc2ccccc2)c1C=NOCc1ccc(C(=O)OC(C)(C)C)cc1,11.2 min
5,CCOP(=O)(SC(C)CC)N1CCSC1=O (stereo not given),8.81 min
6,CCN(CC)c1nc(C)cc(OP(=S)(OC)OC)n1,10.3 min
7,CNc1nc(NC(C)C)nc(SC)n1,8.62 min
8,Cc1ccc(C(C)NC(=O)C(NC(=O)OC(C)C)C(C)C)cc1 (stereo not given),9.73 min
9,CCOP(=O)(NC(C)C)Oc1ccc(S(C)(=O)=O)c(C)c1 (stereo not given),8.51 min
10,CNC(=O)CSP(=S)(OC)OC,7.18 min
11,CC1=NNC(=O)N(N=Cc2cccnc2)C1,1.58 min
12,CCCOC(=O)NCCCN(C)C,5.17 min
13,CCSC(=O)N(CC)C1CCCCC1,10.6 min
14,CCOP(=S)(OCC)OP(=S)(OCC)OCC,10.1 min
15,CCC(CC)Nc1c([N+](=O)[O-])cc(C)c(C)c1[N+](=O)[O-],11.1 min
16,COP(=S)(OC)Oc1ccc(SC)c(C)c1,10.2 min
17,CNC(=O)Oc1cc(C)c(SC)c(C)c1,8.76 min
18,CC(C)(C)C(O)C(Oc1ccc(-c2ccccc2)cc1)n1cncn1 (stereo not given),10.3 min
19,CCCC(=NOCC)C1=C(O)CC(CC(C)SCC)CC1=O (stereo not given),10.7 min
20,C=CC=CCC1=C(C)C(OC(=O)C2C(C=C(C)C(=O)OC)C2(C)C)CC1=O (stereo not given),10.3 min

# From the RepoRT retention time repository (doi:10.1016/j.foodchem.2015.11.070)
